Values of other authors, collected in patent US6683065B1, “Method of treating body insect infestation” (Host Pharmaceuticals LLC, priority 1999, dated 2004).

Conditions: at 20° C.

**Q.** Which “Surface Tension” value does the source give for n-alkanes here?
**A.** 37.8^1 dynes/cm

**Q.** Which “Surface Tension” value does the source give for n-fluoroalkanes here?
**A.** 25.9^1 dynes/cm
